Measurements as given in PubChem BioAssay AID2060888 (Molecular Pharmacology Branch, DTP, NCI, 2025).

System: 695427-040-R-J1-PDC complex spheroid viability
Experiment: Anticancer human tumor 695427-040-R-J1-PDC patient-derived colon adenocarcinoma cell line growth inhibition [RAS]
Conditions: for viability, T/C: stronger effect = lower value
Procedure, shortened: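 Agents were tested in combination matrices in half-log decrements from a top concentration at or near clinical Cmax (10 microM if undetermined). Targets were multi-cell spheroids of tumour lines plus HUVEC and MSC stromal cells.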

[1] = curve of first compound, second compound 0.00316 µM
[2] = curve of first compound, second compound 0.01 µM
[3] = curve of first compound, second compound 0.0316 µM
[4] = curve of first compound, second compound 0.1 µM
[5] = curve of first compound, second compound 0.316 µM
[6] = curve of first compound, second compound 1 µM
[7] = second compound 0.00316 µM, first compound 0.0316 µM
[8] = second compound 0.00316 µM, first compound 0.1 µM
[9] = second compound 0.00316 µM, first compound 0.316 µM
[10] = second compound 0.00316 µM, first compound 1 µM
[11] = second compound 0.01 µM, first compound 0.0316 µM
[12] = second compound 0.01 µM, first compound 0.1 µM
[13] = second compound 0.01 µM, first compound 0.316 µM
[14] = second compound 0.01 µM, first compound 1 µM
[15] = second compound 0.0316 µM, first compound 0.0316 µM
[16] = second compound 0.0316 µM, first compound 0.1 µM
[17] = second compound 0.0316 µM, first compound 0.316 µM
[18] = second compound 0.0316 µM, first compound 1 µM
[19] = second compound 0.1 µM, first compound 0.0316 µM
[20] = second compound 0.1 µM, first compound 0.1 µM
[21] = second compound 0.1 µM, first compound 0.316 µM
[22] = second compound 0.1 µM, first compound 1 µM
[23] = second compound 0.316 µM, first compound 0.0316 µM
[24] = second compound 0.316 µM, first compound 0.1 µM
[25] = second compound 0.316 µM, first compound 0.316 µM
[26] = second compound 0.316 µM, first compound 1 µM
[27] = second compound 1 µM, first compound 0.0316 µM
[28] = second compound 1 µM, first compound 0.1 µM
[29] = second compound 1 µM, first compound 0.316 µM
[30] = second compound 1 µM, first compound 1 µM
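Also: viability read after seven days of drug exposure.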
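For viability, T/C in this document: 100% = DMSO vehicle control viability.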

SMILES: CC(Nc1ccc2c(c1)OCCn1cc(N3C(=O)OCC3C(F)F)nc1-2)C(N)=O (stereo not drawn) + CCn1c(-c2cccnc2C(C)OC)c2c3cc(ccc31)N1CCOC(CC(NC(=O)C(C(C)C)N(C)C(=O)C3(F)CCN(C(=O)C#CC(C)(C)N(C)C)CC3)C(=O)N3CCCC(N3)C(=O)OCC(C)(C)C2)C1
- IC50 (curve of first compound, second compound 0.000949 µM): > 10 µM
- IC50 (curve of first compound, second compound 0.003 µM): 8.53 µM
- IC50 (curve of first compound, second compound 0.00949 µM): > 10 µM
- IC50 (curve of first compound, second compound 0.03 µM): > 10 µM
- IC50 (curve of first compound, second compound 0.0949 µM): > 10 µM
- IC50 (curve of first compound, second compound 0.3 µM): > 10 µM
- viability, T/C (second compound 0.000949 µM, first compound 0.0316 µM): 80.8%
- viability, T/C (second compound 0.000949 µM, first compound 0.1 µM): 68.8%
- viability, T/C (second compound 0.000949 µM, first compound 0.316 µM): 68.7%
- viability, T/C (second compound 0.000949 µM, first compound 1 µM): 34.9%
- viability, T/C (second compound 0.000949 µM, first compound 3.16 µM): 80.1%
- viability, T/C (second compound 0.000949 µM, first compound 10 µM): 39.4%
- viability, T/C (second compound 0.003 µM, first compound 0.0316 µM): 95.4%
- viability, T/C (second compound 0.003 µM, first compound 0.1 µM): 79.6%
- viability, T/C (second compound 0.003 µM, first compound 0.316 µM): 62.1%
- viability, T/C (second compound 0.003 µM, first compound 1 µM): 50.1%
- viability, T/C (second compound 0.003 µM, first compound 3.16 µM): 86%
- viability, T/C (second compound 0.003 µM, first compound 10 µM): 37.5%
- viability, T/C (second compound 0.00949 µM, first compound 0.0316 µM): 103%
- viability, T/C (second compound 0.00949 µM, first compound 0.1 µM): 84.1%
- viability, T/C (second compound 0.00949 µM, first compound 0.316 µM): 72.3%
- viability, T/C (second compound 0.00949 µM, first compound 1 µM): 62.9%
- viability, T/C (second compound 0.00949 µM, first compound 3.16 µM): 81.9%
- viability, T/C (second compound 0.00949 µM, first compound 10 µM): 42.3%
- viability, T/C (second compound 0.03 µM, first compound 0.0316 µM): 91.8%
- viability, T/C (second compound 0.03 µM, first compound 0.1 µM): 70.1%
- viability, T/C (second compound 0.03 µM, first compound 0.316 µM): 59.9%
- viability, T/C (second compound 0.03 µM, first compound 1 µM): 45.3%
- viability, T/C (second compound 0.03 µM, first compound 3.16 µM): 89.3%
- viability, T/C (second compound 0.03 µM, first compound 10 µM): 37.8%
- viability, T/C (second compound 0.0949 µM, first compound 0.0316 µM): 71.8%
- viability, T/C (second compound 0.0949 µM, first compound 0.1 µM): 67.5%
- viability, T/C (second compound 0.0949 µM, first compound 0.316 µM): 52.6%
- viability, T/C (second compound 0.0949 µM, first compound 1 µM): 50.4%
- viability, T/C (second compound 0.0949 µM, first compound 3.16 µM): 100%
- viability, T/C (second compound 0.0949 µM, first compound 10 µM): 40.9%
- viability, T/C (second compound 0.3 µM, first compound 0.0316 µM): 69.6%
- viability, T/C (second compound 0.3 µM, first compound 0.1 µM): 52%
- viability, T/C (second compound 0.3 µM, first compound 0.316 µM): 70.8%
- viability, T/C (second compound 0.3 µM, first compound 1 µM): 52.8%
- viability, T/C (second compound 0.3 µM, first compound 3.16 µM): 69.1%
- viability, T/C (second compound 0.3 µM, first compound 10 µM): 42.1%

SMILES: CC(C)NCC(C(=O)N1CCN(c2ncnc3c2C(C)CC3O)CC1)c1ccc(Cl)cc1 (stereo not drawn) + C=CC(=O)N1CCN(c2nc(OCC3CCCN3C)nc3c(F)c(-c4nc(N)cc(C)c4C(F)(F)F)c(Cl)cc23)C(C)C1
- IC50 [1]: > 10 µM
- IC50 [2]: > 10 µM
- IC50 [3]: > 10 µM
- IC50 [4]: > 10 µM
- IC50 [5]: > 10 µM
- IC50 [6]: > 10 µM
- viability, T/C [7]: 98%
- viability, T/C [8]: 95.2%
- viability, T/C [9]: 88.2%
- viability, T/C [10]: 84.7%
- viability, T/C (second compound 0.00316 µM, first compound 3.16 µM): 93.6%
- viability, T/C (second compound 0.00316 µM, first compound 10 µM): 108%
- viability, T/C [11]: 107%
- viability, T/C [12]: 102%
- viability, T/C [13]: 88.5%
- viability, T/C [14]: 93.3%
- viability, T/C (second compound 0.01 µM, first compound 3.16 µM): 101%
- viability, T/C (second compound 0.01 µM, first compound 10 µM): 111%
- viability, T/C [15]: 109%
- viability, T/C [16]: 91.1%
- viability, T/C [17]: 91.7%
- viability, T/C [18]: 87.8%
- viability, T/C (second compound 0.0316 µM, first compound 3.16 µM): 102%
- viability, T/C (second compound 0.0316 µM, first compound 10 µM): 106%
- viability, T/C [19]: 98.7%
- viability, T/C [20]: 91.5%
- viability, T/C [21]: 81.3%
- viability, T/C [22]: 83.6%
- viability, T/C (second compound 0.1 µM, first compound 3.16 µM): 105%
- viability, T/C (second compound 0.1 µM, first compound 10 µM): 111%
- viability, T/C [23]: 107%
- viability, T/C [24]: 88.6%
- viability, T/C [25]: 91.4%
- viability, T/C [26]: 95.2%
- viability, T/C (second compound 0.316 µM, first compound 3.16 µM): 102%
- viability, T/C (second compound 0.316 µM, first compound 10 µM): 107%
- viability, T/C [27]: 91.7%
- viability, T/C [28]: 94.6%
- viability, T/C [29]: 89%
- viability, T/C [30]: 79.7%
- viability, T/C (second compound 1 µM, first compound 3.16 µM): 81.5%
- viability, T/C (second compound 1 µM, first compound 10 µM): 89.5%

SMILES: C=CC(=O)N1CCN(c2nc(OCC3CCCN3C)nc3c(F)c(-c4nc(N)cc(C)c4C(F)(F)F)c(Cl)cc23)C(C)C1 (stereo not drawn)
- viability, T/C (compound 0.00316 µM): 97.3% [middle of 12 runs]
- viability, T/C (compound 0.0316 µM): 100% [middle of 12 runs]
- viability, T/C (compound 0.1 µM): 102% [middle of 12 runs]
- IC50 (compound alone, run of 06/10/2024): > 1 µM
- IC50 (curve of compound): > 1 µM

SMILES: C=CC(=O)Nc1cc(Nc2nccc(-c3cn(C)c4ccccc34)n2)c(OC)cc1N(C)CCN(C)C
- viability, T/C (compound 0.00316 µM): 96.4% [middle of 4 runs]
- viability, T/C (compound 0.01 µM): 92% [middle of 4 runs]
- viability, T/C (compound 0.0316 µM): 83.7% [middle of 4 runs]
- viability, T/C (compound 0.1 µM): 79.4% [middle of 4 runs]
- viability, T/C (compound 0.316 µM): 63.1% [middle of 4 runs]
- viability, T/C (compound 1 µM): 40.1% [middle of 4 runs]
- IC50 (curve of compound): 597 nM [middle of 4 runs]

SMILES: Nc1ccn(C2OC(CO)C(O)C2(F)F)c(=O)n1 (stereo not drawn) + C=CC(=O)N1CCN(c2nc(OCC3CCCN3C)nc3c(F)c(-c4nc(N)cc(C)c4C(F)(F)F)c(Cl)cc23)C(C)C1
- IC50 [1]: > 1 µM
- IC50 [2]: > 1 µM
- IC50 [3]: > 1 µM
- IC50 [4]: > 1 µM
- IC50 [5]: > 1 µM
- IC50 [6]: > 1 µM
- viability, T/C (second compound 0.00316 µM, first compound 0.00316 µM): 93.3%
- viability, T/C (second compound 0.00316 µM, first compound 0.01 µM): 88.1%
- viability, T/C [7]: 77.5%
- viability, T/C [8]: 84.9%
- viability, T/C [9]: 72.1%
- viability, T/C [10]: 69.6%
- viability, T/C (second compound 0.01 µM, first compound 0.00316 µM): 94.4%
- viability, T/C (second compound 0.01 µM, first compound 0.01 µM): 87.2%
- viability, T/C [11]: 84.3%
- viability, T/C [12]: 74.3%
- viability, T/C [13]: 76.2%
- viability, T/C [14]: 69.5%
- viability, T/C (second compound 0.0316 µM, first compound 0.00316 µM): 92.9%
- viability, T/C (second compound 0.0316 µM, first compound 0.01 µM): 80.5%
- viability, T/C [15]: 77.9%
- viability, T/C [16]: 73.8%
- viability, T/C [17]: 76.5%
- viability, T/C [18]: 70.8%
- viability, T/C (second compound 0.1 µM, first compound 0.00316 µM): 96.9%
- viability, T/C (second compound 0.1 µM, first compound 0.01 µM): 78.4%
- viability, T/C [19]: 77.8%
- viability, T/C [20]: 80.2%
- viability, T/C [21]: 74.2%
- viability, T/C [22]: 72.9%
- viability, T/C (second compound 0.316 µM, first compound 0.00316 µM): 93.8%
- viability, T/C (second compound 0.316 µM, first compound 0.01 µM): 84.2%
- viability, T/C [23]: 91.3%
- viability, T/C [24]: 77.5%
- viability, T/C [25]: 80.4%
- viability, T/C [26]: 69.7%
- viability, T/C (second compound 1 µM, first compound 0.00316 µM): 92.7%
- viability, T/C (second compound 1 µM, first compound 0.01 µM): 85.5%
- viability, T/C [27]: 77.9%
- viability, T/C [28]: 81.5%
- viability, T/C [29]: 86.9%
- viability, T/C [30]: 69.7%
